Reference: patent publication US9943599B2, “Therapeutic applications of calcium electroporation to effectively induce tumor necrosis” (Herlev Hospital, priority 2011, dated 2018)

Legend:
[1] = tested on: muscle below MDA-MB231 tumor; experiment: Normal tissue reaction, muscle below the tumor; format: in vivo, NMRI-Foxn1nu mice; conditions: for fraction of necrosis in muscle tissue: with electroporation, 7 days
Protocol: MDA-MB231, a human breast cancer cell line was used for the in vivo experiments. The cells were tested by rapid MAP27 panel (Taconic, Hudson N.Y.) before use without signs of infection. Cells were maintained in vitro as described in Example 1. 2.5×10^6 cells/100 μl PBS were injected subcutaneously in the flank of NMRI-Foxn1nu mice (Harlan, Indianapolis, Ind.). Tumor pieces were transplanted twice from donor mice to the flank of nude mice that were 13-19 weeks old. HYPNORM™-DORMICUM™ (fentanyl/fluanisone/midazolam; VetaPharma, Leeds, U K and Roche, Basel, Switzerland) was used for anesthesia complemented with RIMADYL® (Carprofen) (Pfizer ApS, Ballerup, Denmark) as well as lidocaine (Region Hovedstadens Apotek, Herlev, Denmark) in the incision. Mice were randomised at a tumor volume above 85 mm^3 and tumors were treated with 1) injection of calcium-chloride solution and electroporation (8 pulses of 1.0 kV/cm for 100 μs and a frequency of 1 Hz) using a 6 mm plate electrode and a square wave electroporator (CLINIPORATOR®, IGEA, Modena, Italy), 2) calcium-free physiological saline injection and electroporation (same parameters as above), 3) injection of calcium-chloride, 4) calcium-free physiological saline injection, or 5) untreated but with needle inserted in the tumor without injection and with electrodes put on the tumor without pulses applied. […] Tumor volume was calculated as ab2n/6, where “a” is the largest diameter and “b” is the largest diameter perpendicular to “a”. […] Estimation of normal tissue damages was evaluated semiquantitatively on HE-sections by light[ ]microscopy (LEICA® DM 2000 light microscope, Leica Microsystems, Wetzlar, Germany).
The presence of necrosis in the muscle samples were scored by counting numbers of necrotic myocytes per 10 HPF (400× magnification). Necrosis was only recorded if the myocytes had lost the nucleus. Increased eosinofilic intensity in the myocyte cytoplasm with a retained nucleus was not recorded as a necrotic fiber. […]

tumor on the heel joint = experiment: Case study, calcium electroporation of canine tumor; format: in vivo, dog; conditions: 168 mM calcium chloride, 50% of tumor volume, 11 days after treatment
Protocol: A seven year old Danish Pointer dog with a tumor on the heel joint was treated with calcium electroporation. The tumor was injected with 168 mM calcium chloride solution in a total volume equivalent to 50% of the tumor volume calculated as ab^2n/6, where “a” is the largest diameter of the tumor and “b” is the largest diameter perpendicular to “a”. The calcium chloride solution was injected throughout the tumor to secure an even distribution of calcium in the tumor. After the calcium injection the tumor was electroporated (8 pulses of […] at 1.0 kV/cm and 1 Hz) using a needle electrode and a square wave electroporator (CLINIPORATOR®, IGEA, Modena, Italy). The tumor was photographed before and after the treatment.

[2] = tested on: MDA-MB231 (human breast cancer) tumors; experiment: Fraction of tumor necrosis at different calcium concentrations and injection volumes; format: in vivo, NMRI-Foxn1nu mice; conditions: electroporation, 7 days
Protocol: MDA-MB231, a human breast cancer cell line was used for the in vivo experiments. The cells were tested by rapid MAP27 panel (Taconic, Hudson N.Y.) before use without signs of infection. Cells were maintained in vitro as described in Example 1. 2.5×10^6 cells/100 μl PBS were injected subcutaneously in the flank of NMRI-Foxn1nu mice (Harlan, Indianapolis, Ind.). Tumor pieces are transplanted twice from donor mice to the flank of nude mice that were 13-19 weeks old. HYPNORM™-DORMICUM™ (fentanyl/fluanisone/midazolam; VetaPharma, Leeds, U K and Roche, Basel, Switzerland) was used for anesthesia complemented with RIMADYL® (Carprofen) (Pfizer ApS, Ballerup, Denmark) as well as lidocaine (Region Hovedstadens Apotek, Herlev, Denmark) in the incision. Mice were randomised at a tumor volume above 85 mm3 and tumors were treated with 1) injection of calcium-chloride solution and electroporation (8 pulses of 1.0 kV/cm for 100 μs and a frequency of 1 Hz) using a 6 mm plate electrode and a square wave electroporator (CLINIPORATOR®, IGEA, Modena, Italy), 2) calcium-free physiological saline injection and electroporation (same parameters as above), 3) injection of calcium-chloride, 4) calcium-free physiological saline injection, or 5) untreated but with needle inserted in the tumor without injection and with electrodes put on the tumor without pulses applied. […] Tumor volume was calculated as ab2n/6, where a is the largest diameter and b is the largest diameter perpendicular to a. The solutions were injected through the side of the firm tumor and the needle was moved around inside the tumor to secure injection all over the tumor. Tumors were removed 7 days after treatment, fixated in formalin (10% neutrally buffered) and paraffin embedded. Subsequently, tissue sections with a thickness of 3 μm were HE-stained according to the routine procedure of the department. The fraction of necrosis within the tumor was estimated from HE-sections using a light microscope, evaluated by a pathologist, blinded with respect to treatment status.

Compound: [Ca+2].[Cl-].[Cl-] [calcium chloride]
- fraction of muscle tissue affected ([1]; after calcium electroporation of the tumor above the muscle): only a minor fraction
- fraction of necrosis in muscle tissue ([1]; at increasing calcium concentrations): increase in the fraction of necrosis
- fraction of necrosis in muscle tissue ([1]; at increasing injection volumes): slight increase in the fraction of necrosis
- necrosis of tumor (tumor on the heel joint): clinical signs of necrosis
- tumor size (photos) (tumor on the heel joint): reduced in size
- fraction of necrosis in tumors ([2]; 100 mM to 500 mM calcium, constant injection volume 50% of tumor volume): higher than the fraction of necrosis in untreated tumors
- injection volume with highest fraction of necrosis ([2]; 168 mM calcium): 40 % of the tumor volume
- fraction of necrosis in tumors ([2]; injection volumes 20% to 80% of tumor volume, constant 168 mM calcium): higher than the fraction of necrosis in untreated tumors
